Reference: US20250041293A1, “AN IGF1R INHIBITOR AND AN AKT INHIBITOR FOR USE IN THE TREATMENT OF CANCER” (Genome Research Limited, priority 2022, published 2025)
Like-named read-outs stand apart in the source and are kept apart here.

Columns and labels:
PKA = conditions: cited from earlier work
colon cancer cell lines = experiment: Anchored 2x7 combination viability screen (CellTiter-Glo, 72 h), colon cancer cell lines; type: cell-based; conditions: in combination with MK-2206, colon; compared with Linsitinib+MK-2206
Description: To screen efficiently we used a 2×7 concentration matrix, or “anchored” approach. We screened each anchor compound at two optimised concentrations and a discontinuous 1,000-fold (7-point) dose-response curve of the library compound. Viability was read out after 72 h of drug treatment using CellTiter-Glo and drug responses for single agent and combination responses were fitted. […] The combination was screened in both anchor and library orientations, the first named compound being the anchor compound.

PKC = conditions: cited from earlier work
Akt2 = Akt2 (Homo sapiens, UniProt P31751); conditions: assay format not stated; cited from earlier work
Chain of Akt2 (P31751 whole entry): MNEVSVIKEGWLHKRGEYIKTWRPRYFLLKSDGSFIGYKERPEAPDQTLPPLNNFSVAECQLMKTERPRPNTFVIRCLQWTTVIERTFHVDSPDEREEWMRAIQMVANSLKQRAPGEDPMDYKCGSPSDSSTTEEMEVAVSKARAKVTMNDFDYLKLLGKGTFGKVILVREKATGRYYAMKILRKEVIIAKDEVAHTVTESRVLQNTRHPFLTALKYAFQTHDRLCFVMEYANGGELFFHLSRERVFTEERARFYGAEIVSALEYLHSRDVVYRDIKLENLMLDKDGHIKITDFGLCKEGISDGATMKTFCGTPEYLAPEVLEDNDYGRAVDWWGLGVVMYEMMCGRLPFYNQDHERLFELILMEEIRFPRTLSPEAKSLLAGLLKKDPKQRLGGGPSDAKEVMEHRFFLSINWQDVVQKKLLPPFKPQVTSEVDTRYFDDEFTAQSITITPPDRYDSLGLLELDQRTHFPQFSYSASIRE

Akt3 = Akt3 (Homo sapiens, UniProt Q9Y243); conditions: assay format not stated; cited from earlier work
Chain of Akt3 (Q9Y243 whole entry): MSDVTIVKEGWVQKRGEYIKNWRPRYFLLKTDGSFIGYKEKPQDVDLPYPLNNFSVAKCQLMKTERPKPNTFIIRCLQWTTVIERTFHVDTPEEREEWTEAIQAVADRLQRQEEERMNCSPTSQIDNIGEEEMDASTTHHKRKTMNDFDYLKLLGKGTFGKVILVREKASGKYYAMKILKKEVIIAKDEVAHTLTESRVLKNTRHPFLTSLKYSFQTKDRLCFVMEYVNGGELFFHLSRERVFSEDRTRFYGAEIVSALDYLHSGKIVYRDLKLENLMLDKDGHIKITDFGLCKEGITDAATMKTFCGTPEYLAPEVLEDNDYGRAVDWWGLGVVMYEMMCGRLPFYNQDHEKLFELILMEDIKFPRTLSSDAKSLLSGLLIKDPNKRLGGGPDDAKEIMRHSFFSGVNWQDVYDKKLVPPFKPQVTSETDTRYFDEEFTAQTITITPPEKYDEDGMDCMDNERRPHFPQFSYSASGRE

Akt1 = Akt1 (Homo sapiens, UniProt P31749); conditions: cited from earlier work
Chain of Akt1 (P31749 whole entry): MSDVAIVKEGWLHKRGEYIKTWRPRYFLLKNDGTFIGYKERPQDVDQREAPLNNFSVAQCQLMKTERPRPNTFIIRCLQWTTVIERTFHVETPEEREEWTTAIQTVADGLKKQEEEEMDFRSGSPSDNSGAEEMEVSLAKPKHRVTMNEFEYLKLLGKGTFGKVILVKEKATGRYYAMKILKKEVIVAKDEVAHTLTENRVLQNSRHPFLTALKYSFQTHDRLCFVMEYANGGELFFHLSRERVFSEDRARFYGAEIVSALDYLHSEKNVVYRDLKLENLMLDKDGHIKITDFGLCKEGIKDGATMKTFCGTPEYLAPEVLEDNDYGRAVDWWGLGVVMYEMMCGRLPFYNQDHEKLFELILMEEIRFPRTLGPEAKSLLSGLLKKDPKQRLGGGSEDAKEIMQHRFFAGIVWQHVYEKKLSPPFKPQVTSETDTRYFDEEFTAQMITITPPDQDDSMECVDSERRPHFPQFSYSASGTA

IGF1R = IGF1R (Homo sapiens, UniProt P08069); conditions: assay format not stated; cited from earlier work
insulin receptor (IR) = insulin receptor (IR) (Homo sapiens, UniProt P06213); conditions: assay format not stated; cited from earlier work
Chain of insulin receptor (IR) (P06213 28-1382): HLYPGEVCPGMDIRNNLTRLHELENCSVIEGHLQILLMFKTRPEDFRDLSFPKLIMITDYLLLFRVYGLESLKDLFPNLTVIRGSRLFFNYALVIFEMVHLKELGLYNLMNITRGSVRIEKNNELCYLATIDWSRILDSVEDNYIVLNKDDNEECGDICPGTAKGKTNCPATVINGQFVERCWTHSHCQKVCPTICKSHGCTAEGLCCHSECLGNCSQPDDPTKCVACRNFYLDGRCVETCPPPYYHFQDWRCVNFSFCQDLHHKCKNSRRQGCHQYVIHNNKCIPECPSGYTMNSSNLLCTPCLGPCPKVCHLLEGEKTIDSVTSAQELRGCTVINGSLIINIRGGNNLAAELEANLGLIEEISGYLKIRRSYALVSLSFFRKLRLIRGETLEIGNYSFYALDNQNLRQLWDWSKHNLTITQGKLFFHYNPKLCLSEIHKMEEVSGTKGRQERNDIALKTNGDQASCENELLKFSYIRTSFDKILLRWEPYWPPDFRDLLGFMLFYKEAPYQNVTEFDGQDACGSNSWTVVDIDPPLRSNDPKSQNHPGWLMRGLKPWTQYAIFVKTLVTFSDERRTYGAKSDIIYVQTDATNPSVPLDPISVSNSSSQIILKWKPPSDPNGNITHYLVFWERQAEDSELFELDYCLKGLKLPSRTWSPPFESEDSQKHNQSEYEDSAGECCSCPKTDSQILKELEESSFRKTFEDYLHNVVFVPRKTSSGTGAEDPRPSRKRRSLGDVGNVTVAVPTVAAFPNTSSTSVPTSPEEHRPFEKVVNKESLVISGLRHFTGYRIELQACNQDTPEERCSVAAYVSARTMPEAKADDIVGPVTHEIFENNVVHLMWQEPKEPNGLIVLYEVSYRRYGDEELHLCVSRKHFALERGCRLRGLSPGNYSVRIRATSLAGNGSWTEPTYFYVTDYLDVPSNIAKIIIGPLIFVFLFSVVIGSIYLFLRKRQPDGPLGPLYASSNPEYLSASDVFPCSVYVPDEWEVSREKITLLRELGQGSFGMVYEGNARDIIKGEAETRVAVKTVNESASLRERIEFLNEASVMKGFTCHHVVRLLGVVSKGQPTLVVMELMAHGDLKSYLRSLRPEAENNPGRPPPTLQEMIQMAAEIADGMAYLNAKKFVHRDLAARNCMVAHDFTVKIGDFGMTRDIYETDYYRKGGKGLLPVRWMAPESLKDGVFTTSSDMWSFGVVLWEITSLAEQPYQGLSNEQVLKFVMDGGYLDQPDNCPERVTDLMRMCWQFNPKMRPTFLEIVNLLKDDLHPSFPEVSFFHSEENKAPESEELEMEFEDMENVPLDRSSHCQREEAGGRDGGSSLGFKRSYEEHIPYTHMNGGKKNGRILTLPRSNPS

FGF-R, PDGF-R, or EGF-R = conditions: for example FGF-R; cited from earlier work
IR = IR (Homo sapiens, UniProt P06213); conditions: cited from earlier work
Chain of IR (P06213 28-1382): as above

[1] = tested on: Akt1/2, Aurora A/B,B-Raf, CDK2, and EGFR; conditions: cited from earlier work
MAPK1/2 = conditions: cited from earlier work
Mek = conditions: cited from earlier work
[2] = phase I, patients with multiple myeloma; cited from earlier work
[3] = weekly 1-hr IV infusions; patients with solid tumours or multiple myeloma; cited from earlier work
ABL T3151 = ABL T3151 (Homo sapiens, UniProt P00519, T315I); conditions: cell-free assays; cited from earlier work
SRC = SRC (Homo sapiens, UniProt P12931); conditions: cell-free assays; cited from earlier work
Chain of SRC (P12931 whole entry): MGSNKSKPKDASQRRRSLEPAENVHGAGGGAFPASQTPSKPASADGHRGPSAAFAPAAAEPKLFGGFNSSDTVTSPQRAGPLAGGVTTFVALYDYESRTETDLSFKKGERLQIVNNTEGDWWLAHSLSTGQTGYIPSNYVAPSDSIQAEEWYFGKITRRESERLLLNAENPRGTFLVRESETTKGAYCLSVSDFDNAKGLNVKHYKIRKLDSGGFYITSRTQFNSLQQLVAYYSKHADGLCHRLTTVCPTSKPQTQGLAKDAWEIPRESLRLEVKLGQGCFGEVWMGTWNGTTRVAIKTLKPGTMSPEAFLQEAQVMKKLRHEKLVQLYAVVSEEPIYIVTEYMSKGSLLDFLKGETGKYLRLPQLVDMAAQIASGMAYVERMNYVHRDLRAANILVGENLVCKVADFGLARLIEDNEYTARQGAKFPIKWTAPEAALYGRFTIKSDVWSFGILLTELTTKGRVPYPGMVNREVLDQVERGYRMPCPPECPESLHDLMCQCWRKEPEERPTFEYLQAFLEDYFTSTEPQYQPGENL

LYN = LYN (Homo sapiens, UniProt P07948); conditions: cell-free assays; cited from earlier work
Chain of LYN (P07948 whole entry): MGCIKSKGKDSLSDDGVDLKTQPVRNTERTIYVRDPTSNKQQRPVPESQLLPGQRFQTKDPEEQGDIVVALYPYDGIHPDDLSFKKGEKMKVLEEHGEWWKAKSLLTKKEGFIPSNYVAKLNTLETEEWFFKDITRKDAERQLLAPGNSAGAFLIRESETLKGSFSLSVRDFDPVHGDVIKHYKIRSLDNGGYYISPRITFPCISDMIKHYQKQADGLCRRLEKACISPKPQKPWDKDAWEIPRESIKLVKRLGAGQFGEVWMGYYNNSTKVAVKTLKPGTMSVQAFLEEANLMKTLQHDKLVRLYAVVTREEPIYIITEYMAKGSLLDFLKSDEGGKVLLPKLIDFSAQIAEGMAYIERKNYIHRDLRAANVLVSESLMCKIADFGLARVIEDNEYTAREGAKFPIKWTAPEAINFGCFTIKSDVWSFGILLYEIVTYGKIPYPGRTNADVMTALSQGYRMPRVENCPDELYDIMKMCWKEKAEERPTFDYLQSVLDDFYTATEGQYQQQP

## C[C@@]1(C(=O)Nc2ccc(F)nc2)CCCN1c1nc(Nc2cc(C3CC3)[nH]n2)c2cccn2n1 [BMS-754807, 1-[4-[(5-cyclopropyl-1H-pyrazol-3-yl)amino]pyrrolo[2,1-f][1,2,4]triazin-2-yl]-N-(6-fluoro-3-pyridyl)-2-methyl-pyrrolidine-2-carboxamide]
PKA
  activity to PKA (in words): little activity
Colon cancer cell lines
  synergy and activity of the IGF1Ri combined with MK-2206 (in words): much lower
PKC
  activity to PKC (in words): little activity

## C[C@]1(O)C[C@@](N)(c2ccc(-c3nc4n(c3-c3ccccc3)COc3ccncc3-4)cc2)C1 [TAS-117, 3-amino-1-methyl-3-[4-(5-phenyl-8-oxa-3,6,12-triazatricyclo[7.4.0.0^2,6]trideca-1(9),2,4,10,12-pentaen-4-yl)phenyl]cyclobutan-1-ol]
Akt2
  IC50: 1.6 nM
Akt3
  IC50: 44 nM
Akt1; assay format not stated
  IC50: 4.8 nM

## Cc1ccsc1C(=O)Nc1cc(CN2CCN(C(=O)CO)CC2)ccc1/C=C/c1n[nH]c2ccccc12 [KW-2450]
IGF1R
  IC50: 7.39 nM
Insulin receptor (IR)
  IC50: 5.64 nM

## COc1cc([C@@H]2c3cc4c(cc3[C@H](O)[C@H]3COC(=O)[C@@H]23)OCO4)cc(OC)c1OC [AXL-1717, (5R,5aR,8aS,9R)-5-hydroxy-9-(3,4,5-trimethoxyphenyl)-5a,6,8a,9-tetrahydro-5H-[2]benzofuro[5,6-f][1,3]benzodioxol-8-one]
FGF-R, PDGF-R, or EGF-R
  inhibition of tyrosine phosphorylation of a selected panel of receptors less related to IGF-IR (in words): does not co-inhibit
IR
  inhibition of tyrosine phosphorylation of the IR (in words): does not co-inhibit

## CCc1cc(Nc2nccc(-c3c(-c4ccc(OC)c(C(=O)Nc5c(F)cccc5F)c4)nc4ccccn34)n2)c(OC)cc1N1CCC(N2CCN(S(C)(=O)=O)CC2)CC1 [GSK1904529A, N-(2,6-difluorophenyl)-5-[3-[2-[5-ethyl-2-methoxy-4-[4-(4-methylsulfonylpiperazin-1-yl)-1-piperidyl]anilino]pyrimidin-4-yl]imidazo[1,2-a]pyridine-2-yl]-2-methoxy-benzamide]
[1]
  selectivity for IGF1R/IR than Akt1/2, Aurora A/B, B-Raf, CDK2, and EGFR: > 100 fold

## Cc1cc(N2CCOCC2)cc2[nH]c(-c3c(NC[C@@H](O)c4cccc(Cl)c4)cc[nH]c3=O)nc12 [BMS-536924]
MAPK1/2
  activity for MAPK1/2 (in words): very little activity
Mek
  IC50: 182 nM
Akt1
  activity for Akt1 (in words): very little activity

## Cn1ncc(Cl)c1-c1cc(C(=O)N[C@H](CN)Cc2cccc(F)c2)sc1Cl [Afuresertib, N-[(1S)-1-(aminomethyl)-2-(3-fluorophenyl)ethyl]-5-chloro-4-(4-chloro-2-methyl-pyrazol-3-yl)thiophene-2-carboxamide]
[2]
  maximum tolerated dose (MTD): 125 mg per day

## CC(C)c1cc(CNc2nc(Nc3cc(C4CC4)[nH]n3)cc(N3CCN(C)CC3)n2)on1 [XL228, N4-(5-cyclopropyl-1H-pyrazol-3-yl)-N2-[(3-isopropylisoxazol-5-yl)methyl]-6-(4-methylpiperazin-1-yl)pyrimidine-2,4-diamine]
[3]
  maximum tolerated dose (MTD): 6.5 mg/kg
ABL T3151
  IC50: 1.4 nM
SRC
  IC50: 6.1 nM
LYN
  IC50: 2 nM
